Consider three molecules from patent US11713318B2, “Short conjugated oligoelectrolytes and uses thereof” (The Regents Of The University Of California, priority 2018, dated 2023).

For one data set, the system named is HRPTEpiC. In words: Cytotoxicity tested by Eurofins Pharma Discovery Services. Format: cell-based. The conditions noted are these: data provided by Eurofins.
For a further data set, the system named is Hep G2 cells. Described as above. Format: cell-based. The conditions noted are these: for IC50: Hep G2, data provided by Eurofins.
Data set [1] deals with S. aureus ATCC 33591 (MRSA). In words: MIC against resistant strains, Tables 5a-5d. Format: cell-based. The conditions noted are these: Staphylococcus aureus, n = 3. The method, then:
(§1) Compounds described herein were evaluated for growth inhibition against a variety of bacterial species, including strains that have developed resistance to common antibacterial treatments, according to the procedure described herein, or by analogous procedures known to those skilled in the art. Resistant bacterial strains used for compound testing include methicillin-resistant S. aureus (MRSA), vancomycin resistant Enterococci (VRE) and various multi-drug resistant (MDR) strains commonly associated with hospital-acquired (nosocomial) infections, including, but not limited to A. baumannii, K. pnuemoniae, and E. cloacae.

The subject of a further data set is E. faecium 1674620 (VRE). Put plainly: MIC against resistant strains, Tables 5a-5d. It counts as cell-based. The following applies: Enterococcus faecium, n = 3. The method, then:
as §1

The subject of data set [2] is A. baumannii 1674627 (MDR). Put plainly: MIC against resistant strains, Tables 5a-5d. It counts as cell-based. The following applies: Acinetobacter baumannii, n = 3. The procedure:
as §1

The test system of data set [3] is P. aeruginosa CDC0248 (MDR). Put plainly: MIC against resistant strains, Tables 5a-5d. Format: cell-based. The following applies: Pseudomonas aeruginosa, n = 3. The method, then:
as §1

In data set [4] the test system is P. aeruginosa 1674623 (MDR). Put plainly: MIC against resistant strains, Tables 5a-5d. Format: cell-based. The conditions noted are these: Pseudomonas aeruginosa, n = 3. The procedure: as §1
Data set [5] relates to K. pneumoniae CDC0010 (MDR). In words: MIC against resistant strains, Tables 5a-5d. Format: cell-based. The conditions noted are these: Klebsiella pneumoniae, n = 3. The method, then:
as §1

A further data set deals with E. coli ATCC25922 (WT). Put plainly: MIC against resistant strains, Tables 5a-5d. It counts as cell-based. The following applies: Escherichia coli, n = 3. The method, then: as §1
Data set [6] relates to E. cloacae 1744299 (ESBL). Put plainly: MIC against resistant strains, Tables 5a-5d. Format: cell-based. The conditions noted are these: Enterobacter cloacae, n = 3. The procedure:
as §1

For data set [7], the system named is K. pneumoniae ATCC BAA-2473 (MDR). In words: MIC against resistant strains, Tables 5a-5d. Format: cell-based. The following applies: Klebsiella pneumoniae, ATCCBAA2473, n = 3. The procedure: as §1
For data set [8], the system named is A. baumannii CDC0290 (MDR). In words: MIC against resistant strains, Tables 5a-5d. The following applies: Acinetobacter baumannii, n = 3. Format: cell-based. The procedure: as §1
Data set [9] relates to S. aureus ATCC BAA-1717 (MRSA). In words: MIC against resistant strains, Tables 5a-5d. It counts as cell-based. The following applies: Staphylococcus aureus, n = 3. The procedure:
as §1

For data set [10], the system named is primary human hepatocytes. In words: Cytotoxicity tested by Eurofins Pharma Discovery Services. Format: cell-based. The following applies: for IC50: data provided by Eurofins.
A further data set has as its system E. coli K12 (ATCC 47076). Put plainly: MIC broth microdilution method, Table 3.
Data set [11] concerns K. aerogenes (ATCC 13048). Put plainly: MIC broth microdilution method, Table 3.
For data set [12], the system named is S. epidermidis (ATCC 14990). Put plainly: MIC broth microdilution method, Table 3.
Data set [13] has as its system NIH 3T3 (ATCC CRL-1658) cells. In words: Cytotoxicity, MTT assay. Format: cell-based. The conditions noted are these: NIH 3T3; for IC50: MTT, 24 hours incubation. The method, then: (§2) Before removing the frozen cell stocks from liquid nitrogen, culture medium was pre-warmed to 37° C. The frozen tube was then removed from liquid nitrogen and placed into a 37° C. water bath and shaken gently to thaw the cell stock as quickly as possible. A small portion of the pre-warmed culture medium was added to the cell solution. The cell suspension was then centrifuged at 1000 r/min for 3 minutes. The supernatant was discarded and the cells were resuspended in fresh culture medium.
(§3) NIH 3T3 (ATCC CRL-1658) and Hep G2 (ATCC HB-8065) cells were cultured with DMEM+10% FBS in 100 mm dishes. Cells were lifted for subculture or testing when confluence reached ˜60% by treating with 1× trypsin (incubated for 3 min at 37° C.). J774 (ATCC TIB-67) cells were cultured with DMEM+10% FBS in 100 mm dishes. Cells were lifted for subculture or testing when confluence reached ˜80% using a cell scraper. RAW264.7 (ATCC TIB-71) cells were cultured with DMEM+10% heat-inactivated FBS+1% pen/strep in T75 flasks. Cells were lifted for subculture or testing when confluence reached ˜80% using a cell scraper.
(§4) • 1. Cells were lifted and resuspended in culture medium. The number of cells in the cell suspension was determined using an auto-cell counter: 10 μL of the cell suspension was mixed with 10 μL 1× trypan blue (filtered with 0.2 μm PES filter) and the mixture was loaded onto a cell counting slide. Based on the concentration of viable cells, the cell suspension was further diluted to achieve the desired density. • 2. Cells were seeded in 96 well plates by adding 100 μL final cell suspension column-by-column using a multichannel pipette (5000 cells/well for NIH 3T3, 10000 cells/well for Hep G2, J774 and RAW264.7). The outer wells were block with PBS to reduce the effects of evaporation. One column was filled with only culture medium as a blank. Cells were incubated overnight before adding the test articles. • 3. Test articles were dissolved in 1×PBS (or DMSO) to obtain stocks solution. Stock solutions were pre-warmed before use. […] Serial dilutions (2-fold) of the 10× solutions were made in sterile culture tubes by diluting in 1×PBS (8 dilutions to yield 9 test concentrations). 900 μL of culture media was added to each tube to obtain final drug solution containing 10% PBS (or less than 1% DMSO) for each experimental group. • 4. The original culture medium was gently removed from the 96-well plates using a pipette. 100 μL of the test article solutions prepared in Step 3 were added to rows 2-7 of each column to obtain six replicates for each concentration. Plates were then incubated for 24 hours. • 5. MTT solutions were prepared by dissolving commercial MTT powder in 1×PBS to a concentration of 5 mg/mL. After passing through a 0.22 μm PES filter, the MTT solution was divided into 1 mL portions in sterile centrifuge tubes and stored at −20° C. • 6. MTT stock solutions were removed from the freezer to thaw at room temperature. Before adding MTT solutions, cell cultures were visually inspected and imaged using a microscope (to use as a comparison with MTT results). 10 μL of the 5 mg/mL MTT solution was added to each well and the plate was incubated for 4 hours. • 7. After 4 h incubation, the culture medium/MT solution was removed gently using a pipette. 100 μL of DMSO was added to each well using a multichannel pipette. The 96-well plates were analyzed in a plate reader using the following method: shake for 5 minutes, wait for 30 seconds, and measure absorbance at 570 nm. • 8. Data processing: The average of background Abg was calculated from the blank column. All other data was first treated by subtracting Abg. The average A. and standard deviation Se of each experimental group and the average Ac and standard deviation Sc for control group (with pure culture medium incubation) were then calculated. The cell viability was determined as Ae/Ac×100% and corresponding error as Se/Ae×100%. Significant outliers in any experimental or control group were removed. […]

Data set [14] deals with Hep G2 (ATCC HB-8065) cells. In words: Cytotoxicity, MTT assay. Format: cell-based. The conditions noted are these: Homo sapiens, HepG2, 24 h, Hep G2; MTT, 24 hours incubation; read-out: IC50. The method, then: as §2, §3, §4
A further data set relates to J774 (ATCC TIB-67) cells. In words: Cytotoxicity, MTT assay. The following applies: for IC50: MTT, 24 hours incubation. It counts as cell-based. The procedure: as §2, §3, §4
Data set [15] relates to RAW264.7 (ATCC TIB-71) cells. Put plainly: Cytotoxicity, MTT assay. Format: cell-based, murine. The following applies: RAW 264.7. The procedure: as §2, §3
• 1. Cells were lifted and resuspended in culture medium. The number of cells in the cell suspension was determined using an auto-cell counter: 10 μL of the cell suspension was mixed with 10 μL 1× trypan blue (filtered with 0.2 μm PES filter) and the mixture was loaded onto a cell counting slide. Based on the concentration of viable cells, the cell suspension was further diluted to achieve the desired density. • 2. […] The 96-well plates were analyzed in a plate reader using the following method: shake for 5 minutes, wait for 30 seconds, and measure absorbance at 570 nm. • 8. Data processing: The average of background Abg was calculated from the blank column. […] The average A. and standard deviation Se of each experimental group and the average Ac and standard deviation Sc for control group (with pure culture medium incubation) were then calculated. The cell viability was determined as Ae/Ac×100% and corresponding error as Se/Ae×100%. […]

Data set [16] is described as follows: Solubility in aqueous media. Format: physicochemical. The conditions noted are these: reason why efficacy could not be detected.
Setting [17] is: at the concentration given as IC50 bound.

Where two headings read alike, the source gives them in different places.

As for `CCCCCC[N+](C)(C)CCCCOc1cc(/C=C/c2ccc(/C=C/c3cc(OCCCC[N+](C)(C)CCCCCC)cc(OCCCC[N+](C)(C)CCCCCC)c3)cc2)cc(OCCCC[N+](C)(C)CCCCCC)c1.[I-].[I-].[I-].[I-]` [Formula T], the IC50 was 2.8 µg/mL in the data set with HRPTEpiC (read-out: IC50); 11.6 µg/mL with Hep G2 cells (Homo sapiens, HepG2, read-out: IC50); 31.8 µg/mL in data set [10] (Hepatocyte, read-out: IC50); 12.4 µg/mL in data set [13] (Mus musculus, NIH3T3, read-out: IC50); 15.3 µg/mL in data set [14]; 4.6 µg/mL in the data set on J774 (ATCC TIB-67) cells (Mus musculus, read-out: IC50). The MIC was 0.5 µg/mL in data set [1]; 0.25 µg/mL against E. faecium 1674620 (VRE); 2 µg/mL in data set [2]; 32 µg/mL in data set [3]; 16 µg/mL in data set [4]; 4 µg/mL in data set [5]. Also, the MIC is 2 µg/mL against E. coli ATCC25922 (WT); 2 µg/mL in [6]; 4 µg/mL in data set [7]; 4 µg/mL in [8]; 1 µg/mL in [9]; 4 µg/mL with E. coli K12 (ATCC 47076) (Escherichia coli, ATCC47076). Besides, the minimal inhibitory concentration (MIC) in data set [11] (Klebsiella aerogenes, ATCC13048) turned out to be 8 µg/mL; in data set [12] (Staphylococcus epidermidis, ATCC14990), 1 µg/mL.
With Colistin [reference compound], the IC50 was more than 20 µg/mL in [15] (MTT, 24 hours incubation); 215 µg/mL with HRPTEpiC; more than 324 µg/mL in the data set on Hep G2 cells; more than 324 µg/mL in data set [10]; more than 128 µg/mL in [13]; more than 128 µg/mL in the data set with J774 (ATCC TIB-67) cells. In addition, the “cell viability at the highest or lowest test concentration” value in [15] (setting [17]) is on record as “(109%)”; in the data set with Hep G2 cells (Hep G2, Eurofins, at the concentration given as IC50 bound), “(100%)”; in [10] (Eurofins, at the concentration given as IC50 bound) it was “(101%)”; in [13] (setting [17]) it was “(104%)”; in the data set on J774 (ATCC TIB-67) cells (setting [17]), “(115%)”. Moreover, the MIC in the data set on E. coli K12 (ATCC 47076) (E. coli K12 (−), LB medium, less than 10% relative growth) was 1 µg/mL; in data set [11] (K. aerogenes (−), LB medium, less than 10% relative growth), 2 µg/mL; in data set [12] (S. epidermidis (+), BHI medium, less than 10% relative growth), more than 64 µg/mL.
In the case of `CC(C)(C)c1cc[n+](CCCCCCOc2cc(/C=C/c3cc(OCCCCCC[n+]4ccc(C(C)(C)C)cc4)cc(OCCCCCC[n+]4ccc(C(C)(C)C)cc4)c3)cc(OCCCCCC[n+]3ccc(C(C)(C)C)cc3)c2)cc1.[I-].[I-].[I-].[I-]` [Formula D], in [16], the solubility entry is “low solubility”. Further, the IC50 in data set [14] was 20.7 µg/mL.
